# Measured values as given in patent US20220023323A1, “RESETTING BIOLOGICAL PATHWAYS FOR DEFENDING AGAINST AND REPAIRING DETERIORATION FROM HUMAN AGING” (priority 2015, published 2022).
# Tests used:
# Sirt1 = Sirt1 (Homo sapiens, UniProt Q96EB6); conditions: cited from earlier work
# [1] = estimated; cited from earlier work
# [2] = no light and no contaminants in deionized/distilled H2O; cited from earlier work
# [3] = cited from earlier work
# Interleukin-6 = experiment: LabCor monthly serum marker testing: Interleukin-6; format: in vivo, human; conditions: person, oral twice daily, study month 3: NMN alone, 3rd month, baseline 1.3
# Experimental: (§1) A person weighing 88 kg at the beginning of the treatment was treated with a regimine of category 1, category 2, and category 3 molecules as noted below.
# (§2) The amounts of each composition were set so that by the subject drinking the full 500 mL a final dosage approximately 1.19×10^−4 moles NMN/kg body weight per dose, 2.91×10^−4 moles betaine/kg body weight per dose, 1.17×10^−5 moles of H2O2/kg of body weight per dose, and 1.51×10^−6 moles cf NaSH/kg of body weight per dose was given to the subject through drinking the 500 mL solution.
# (§3) By taking two similar dosages per day, the sum of the two daily equal allotments was • Nicotinamide Mononucleotide (NMN) dosage−2.38×10^−4 moles/Kg body weight/day • The betaine dosage−5.82×10^−4 moles/Kg body weight/day • The Hydrogen Peroxide (H2O2) dosage−2.34×10^−5 moles/Kg body weight/day • The Sodium Hydrogen Sulfide (NaSH) dosage−3.02×10^−6 moles/Kg body weight/day
# (§4) The subject self-administered the formulations orally through drinking the solution at approximately 7AM and 7 PM each day. These times were chosen because they approximated the subjects' biological clock peaks of NAD+ as determined by Ramsey K 2009. This had the effect of pulsing the ingredients into the body twice a day. approximately timed with the biological clock of the subject.
# LabCor Inc. performed the marker testing using standard protocols on a monthly basis. […]
# Inflammation Score = Inflammation Score (sum of the markers) and aging prediction after Arai 2015; format: in vivo, human; conditions: person, baseline 5.17
# From the text: Inflammation markers can be analyzed for aging including those markers found in the study by Arai in 2015. Aria found inflammation markers that were predictive of who would continue to live (life-span) and who would be physically and cognitively healthy (health-span). The markers used were CMV IgG, IL-6, TNF-alpha and CRP.
# (§5) LabCor Inc. performed the marker testing using standard protocols on a monthly basis. Blood draw times ranged between 8:19 am and 8:54 am. Inflammatory measurements are correlated to the biological clock. LabCor tested levels of CMV IgG, C-Reactive Protein, Tumor Necrosis Factor-Alpha, and Interleukin-6 in Serum.
# In the baseline condition for the subject, both C-reactive Protein (2.77 mg/L) and Interleukin-6 (1.3 pg/m14 measurements were above the “unrelated family” level (0.7 mg/l and 1.13 pg/mL) (Arai Y 2015, Table 1) as well as the “offspring” level (0.7 mg/l and 1.03 pg/mL) (Arai Y. 2015, Table 1) respectively. The […] subject of this study has a similar age to the “offspring” group and the “unrelated family” group of Arai. These two inflammation test scores effect the prediction algorithm to predict a worse aging outcome for the subject than the “offspring” or “unrelated family” groups of Arai at baseline.
# [4] = test system: Tumor Necrosis Factor-Alpha; experiment: LabCor monthly serum marker testing: Tumor Necrosis Factor-Alpha; format: in vivo, human; conditions: person, oral twice daily, baseline 1.1
# Experimental: The amounts of each composition were set so that by the […] given to the subject through drinking the 500 mL solution. […]
# as §4, §5
# CMV IgG = experiment: LabCor monthly serum marker testing: CMV IgG; format: in vivo, human; conditions: person, oral twice daily
# Experimental: as §1
# Typical final concentrations of NMN taken by subject were 3.5 grams in 500 mL H2O, betaine were 3 grams in 500 mL H2O, H2O2 were (2 drops of 35% concentration in 500 mL H2O), and NaSH were (drops of 2 at 66 uM per drop concentration in 500 mL H2O).
# as §2, §3, §4, §5
# [5] = NMN given to mice; cited from earlier work
# CD38 = target: T1, CD38 (Homo sapiens, UniProt P28907); conditions: CD38 substrate; cited from earlier work
# T1 sequence (P28907 1-300): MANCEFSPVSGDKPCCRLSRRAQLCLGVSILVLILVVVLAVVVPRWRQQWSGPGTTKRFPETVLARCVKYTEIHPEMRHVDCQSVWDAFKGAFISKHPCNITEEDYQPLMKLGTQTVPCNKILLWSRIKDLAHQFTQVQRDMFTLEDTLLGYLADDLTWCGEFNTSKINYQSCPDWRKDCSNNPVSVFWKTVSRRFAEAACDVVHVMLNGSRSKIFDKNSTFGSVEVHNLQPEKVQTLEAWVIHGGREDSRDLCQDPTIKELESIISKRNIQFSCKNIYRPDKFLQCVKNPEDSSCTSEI
# C-Reactive Protein = experiment: LabCor monthly serum marker testing: C-Reactive Protein; format: in vivo, human; conditions: for C-Reactive Protein: serum, person, oral twice daily, baseline 2.77
# Experimental: The amounts of each composition were set so that by the subject drinking the full 500 mL a final dosage approximately 1.19×10^−4 moles NMN/kg body weight per dose, […] through drinking the 500 mL solution. […]
# as §4, §5
# [6] = cited from earlier work; remark: listed apart in the source
# Sirtuins = conditions: most Sirtuins; cited from earlier work
# PARP-1 = PARP-1 (Homo sapiens, UniProt P09874); conditions: cited from earlier work
# [7] = cited from earlier work; remark: listed apart in the source
# [8] = study month 1: NMN alone, 1st month
# [9] = study month 2: NMN alone, 2nd month
# [10] = study month 3: NMN alone, 3rd month
# Sirt1, sequence (Q96EB6 whole entry): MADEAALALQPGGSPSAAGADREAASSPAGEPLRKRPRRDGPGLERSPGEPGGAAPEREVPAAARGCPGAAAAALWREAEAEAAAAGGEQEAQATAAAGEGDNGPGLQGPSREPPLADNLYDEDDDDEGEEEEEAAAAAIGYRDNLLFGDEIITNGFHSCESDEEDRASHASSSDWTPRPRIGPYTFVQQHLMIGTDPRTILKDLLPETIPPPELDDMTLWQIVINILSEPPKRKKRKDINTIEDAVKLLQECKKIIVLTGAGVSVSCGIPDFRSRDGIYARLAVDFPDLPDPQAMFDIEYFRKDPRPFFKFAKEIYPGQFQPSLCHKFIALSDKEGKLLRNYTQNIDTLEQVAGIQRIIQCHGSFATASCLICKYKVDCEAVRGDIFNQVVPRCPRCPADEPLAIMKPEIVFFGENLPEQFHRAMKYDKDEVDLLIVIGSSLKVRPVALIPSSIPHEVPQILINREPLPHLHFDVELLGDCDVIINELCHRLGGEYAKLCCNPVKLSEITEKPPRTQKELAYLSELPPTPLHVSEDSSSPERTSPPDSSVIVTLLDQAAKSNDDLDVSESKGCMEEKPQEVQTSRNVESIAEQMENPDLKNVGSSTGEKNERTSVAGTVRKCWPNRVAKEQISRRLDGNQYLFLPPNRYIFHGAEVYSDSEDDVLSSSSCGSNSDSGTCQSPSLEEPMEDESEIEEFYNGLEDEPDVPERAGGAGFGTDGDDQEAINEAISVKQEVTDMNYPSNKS
# PARP-1, sequence (P09874 whole entry): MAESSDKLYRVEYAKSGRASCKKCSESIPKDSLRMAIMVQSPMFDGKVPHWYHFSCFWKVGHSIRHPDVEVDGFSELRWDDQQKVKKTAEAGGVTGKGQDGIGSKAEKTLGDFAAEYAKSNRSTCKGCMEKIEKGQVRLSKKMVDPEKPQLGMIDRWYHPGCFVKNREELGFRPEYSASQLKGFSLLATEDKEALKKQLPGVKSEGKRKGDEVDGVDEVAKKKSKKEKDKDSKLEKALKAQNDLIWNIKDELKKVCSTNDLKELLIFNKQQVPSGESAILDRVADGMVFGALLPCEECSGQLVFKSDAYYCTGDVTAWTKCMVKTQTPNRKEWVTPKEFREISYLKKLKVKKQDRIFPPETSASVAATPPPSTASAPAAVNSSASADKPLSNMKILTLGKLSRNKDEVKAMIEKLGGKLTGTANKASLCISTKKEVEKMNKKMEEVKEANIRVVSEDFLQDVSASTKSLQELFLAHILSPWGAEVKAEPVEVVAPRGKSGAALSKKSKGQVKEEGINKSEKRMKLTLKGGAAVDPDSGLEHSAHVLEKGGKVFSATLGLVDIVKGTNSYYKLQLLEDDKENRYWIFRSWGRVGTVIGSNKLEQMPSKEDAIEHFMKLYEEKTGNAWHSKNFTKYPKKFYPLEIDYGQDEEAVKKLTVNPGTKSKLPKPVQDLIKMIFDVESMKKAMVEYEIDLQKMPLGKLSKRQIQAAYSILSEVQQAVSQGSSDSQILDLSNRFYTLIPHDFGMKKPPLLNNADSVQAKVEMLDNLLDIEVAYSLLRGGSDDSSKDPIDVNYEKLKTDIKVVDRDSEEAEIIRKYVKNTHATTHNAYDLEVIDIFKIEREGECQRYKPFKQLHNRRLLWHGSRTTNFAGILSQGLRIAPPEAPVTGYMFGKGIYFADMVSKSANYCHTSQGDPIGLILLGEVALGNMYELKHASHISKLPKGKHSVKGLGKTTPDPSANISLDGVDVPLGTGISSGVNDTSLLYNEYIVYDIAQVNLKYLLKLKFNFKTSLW
compound,measurement,setting,value
"OO [H2O2, hydrogen peroxide]",extracellular H2O2 inhibition of Sirt1,Sirt1; extracellular H2O2,1 µmol
same,extracellular concentration that inhibits Sirt1,Sirt1; oxidizing critical cysteine residues in the Sirtuin active center,1 µM
same,fraction absorbed by the gut,[1],~50%
same,degradation rate,[2],about 10 %/year
"S [H2S, hydrogen sulfide]",half-life,[3]; under in vivo conditions,between seconds and minutes
"NC(=O)c1ccc[n+]([C@@H]2O[C@H](COP(=O)([O-])O)[C@@H](O)[C@H]2O)c1 [NMN, Nicotinamide mononucleotide]",Interleukin-6 Serum,Interleukin-6,0.9 pg/mL
same,Inflammation Score,Inflammation Score; [8],8.55
same,Inflammation Score,Inflammation Score; [9],2.23
same,Inflammation Score,Inflammation Score; [10],2.53
same,Tumor Necrosis Factor-Alpha,[4]; [8],0.9 pg/mL
same,Tumor Necrosis Factor-Alpha,[4]; [9],1.1 pg/mL
same,Tumor Necrosis Factor-Alpha,[4]; [10],1.1 pg/mL
same,CMV IgG,CMV IgG; [8],0
same,CMV IgG,CMV IgG; [9],0
same,CMV IgG,CMV IgG; [10],0
same,time to create NAD+ out of the NMN,[5],15 min
same,kcat relative to that of NAD+,CD38,5 fold
same,CRP,"C-Reactive Protein; after two months of treatment with NMN, subject",0.43 mg/L
same,C-Reactive Protein,C-Reactive Protein; [9],0.43 mg/L
same,C-Reactive Protein,C-Reactive Protein; [10],0.53 mg/L
"C[S+](CC[C@H](N)C(=O)O)C[C@H]1O[C@@H](n2cnc3c(N)ncnc32)[C@H](O)[C@@H]1O (stereo partly drawn) [SAM, S-5′-adenosyl-L-methionine]",fraction that gets into the body when ingested,[6],about 2%
"NC(=O)c1ccc[n+]([C@@H]2O[C@H](COP(=O)([O-])OP(=O)(O)OC[C@H]3O[C@@H](n4cnc5c(N)ncnc54)[C@H](O)[C@@H]3O)[C@@H](O)[C@H]2O)c1 [NAD+, nicotinamide adenine dinucleotide]",Km,Sirtuins,100 to 300 µM
same,Km,"PARP-1; PARP-1, substrate NAD+",20 to 60 µM
same,Km of PARP-1 lower than Sirtuin-1,PARP-1; PARP-1 compared to Sirt1,5 fold
same,absorption through the digestive system,[7]; in vivo,not absorbed well
"NC(=O)c1ccc[n+]([C@@H]2O[C@H](CO)[C@@H](O)[C@H]2O)c1 [NR, nicotinamide riboside]",reaching muscle,[7]; orally delivered,largely not reach muscle
"S [NaHS, sodium hydrosulfide]",time to increase of H2S concentration,[3]; H2S donors,within seconds to minutes
